Laboratory results: paper PMC10300829 (2023)

How the values were obtained:
[1] = test system: C9-24mer G + C (C9-24mer with C9-24mer-C) (DNA, other) GGGGCCGGGGCCGGGGCCGGGGCC/GGCCCCGGCCCCGGCCCCGGCCCC; assay: CD and native PAGE; conditions: K+ 5 mM; 30 mM Tris-HCl pH 7.4; co-annealed; PAGE with 8 µM Fangchinoline; parallel GQ induced
[2] = test system: Dup I + II (DNA, duplex) GGGCATAGTGCGTGGCGTTTAGC/GCTAAACGCCACGCACTATGCCC; assay: CD and native PAGE; conditions: K+ 5 mM; 30 mM Tris-HCl pH 7.4; co-annealed; PAGE with 8 µM Fangchinoline, 2 µM each strand
[3] = test system: C9-48mer (DNA, G4) GGGGCCGGGGCCGGGGCCGGGGCCGGGGCCGGGGCCGGGGCCGGGGCC; assay: CD melting at 265 nm; conditions: K+ 5 mM; 30 mM Tris-HCl pH 7.4; 1 µM DNA; Tm 90 °C at 1 equivalent, undetectable above 4 equivalents
[4] = test system: C9-24mer (DNA, G4) GGGGCCGGGGCCGGGGCCGGGGCC; assay: CD titration at 265 nm, Hill fit; conditions: K+ 5 mM; 30 mM Tris-HCl pH 7.4; co-annealed; 2 µM DNA; per GQ unit; ligand induces parallel GQ; apparent
[5] = test system: C9-24mer (DNA, G4) GGGGCCGGGGCCGGGGCCGGGGCC; assay: CD melting; conditions: K+ 5 mM; 30 mM Tris-HCl pH 7.4; 2 µM DNA, 8 µM compound (4 equivalents)
[6] = test system: FRET I + II (DNA, G4) GGGGCCGGGGCCGGGGCCGGGGCCAGAGGTAAAAGGATAATGGCCACGGTGCGGACGGC/GCCGTCCGCACCGTGGCCATTATCCTTTTACCTCT; assay: FRET (Cy3/Cy5) and CD; conditions: K+ 100 mM; 30 mM Tris-HCl pH 7.4; 2 µM DNA, 8-24 µM compound; FRET efficiency falls to 0.46
[7] = test system: C9-RNA (RNA, G4) GGGGCCGGGGCCGGGGCCGGGGCC; assay: CD melting; conditions: K+ 5 mM; 30 mM Tris-HCl pH 7.4; 5 µM RNA, 2 equivalents (10 µM); Tm 76 to 93 °C
[8] = test system: C9-48mer (DNA, G4) GGGGCCGGGGCCGGGGCCGGGGCCGGGGCCGGGGCCGGGGCCGGGGCC; assay: CD titration at 265 nm, Hill fit; conditions: K+ 5 mM; 30 mM Tris-HCl pH 7.4; co-annealed; 1 µM DNA; per GQ unit; ligand induces parallel GQ; apparent

`COc1ccc2cc1Oc1ccc(cc1)C[C@H]1c3cc(c(OC)cc3CCN1C)Oc1c(O)c(OC)cc3c1[C@H](C2)N(C)CC3` was tested, and the binding [1] was “yes”, the binding [2] was “no” and the binding [3] was “yes”. The Kb [4] was “(4.0 ± 0.3) × 10^5 M^-1”, the ΔTm [5] was 6 °C and the binding [6] was “yes”. For the same compound, the ΔTm [7] was 17 °C and the Kb [8] was “(6.6 ± 0.2) × 10^5 M^-1”.
